The text below walks through data of patent US20260070899A1, “N-(2-(4-CYANOTHIAZOLIDIN-3-YL)-2-OXOETHYL)-QUINOLINE-4-CARBOXAMIDES” (AstraZeneca AB, priority 2022, published 2026).

Each structure is given as a SMILES string. Bounds are passed on as bounds.

The target of data set [1] is T1, human dipeptidylpeptidase 7 (hDPP7) (Homo sapiens, UniProt Q9UHL4).
T1 construct: purchased BPS Bioscience 80070
The data set is described as follows: hDPP7 inhibition assay. It counts as biochemical. The following applies: hDPP7 15 nM, Ala-Pro-amino-methylcoumarin 5 μM; n = 1. The procedure:
Compounds were tested in a biochemical inhibition assay using human dipeptidylpeptidase 7 (hDPP7) enzyme at 15 nM FAC (BPS Bioscience, #80070) and the substrate Ala-Pro-amino-methylcoumarin (BPS Bioscience, #80305) at 5 μM FAC. The enzymatic reactions were conducted in duplicate at rt for 30 min in 50 μL DPP assay buffer (BPS Bioscience, #80300). Compound solutions (in DMSO) at 10 CR, 3 fold dilution series were prepared in assay buffer ten-fold higher than the final concentration, and 5 μL of the dilution was added to a 50 μL reaction so that the highest compound concentration was 100 μM FAC and the concentration of DMSO was 1% in all wells. The plates were read on a Tecan Infinite M1000 microplate reader with excitation 340 nm and emission 460 nm. Data were analyzed in Graph Pad Prism. […] Raw data signals were normalized using 1% DMSO as 0% control and no enzyme as 100% inhibitor control.

Data set [2] concerns the target T2, human dipeptidylpeptidase 8 (hDPP8) (Homo sapiens, UniProt Q6V1X1).
T2 construct: purchased BPS Bioscience 80080
The data set is described as follows: hDPP8 inhibition assay. Particulars: hDPP8 1.5 nM, Ala-Pro-amino-methylcoumarin 5 μM; n = 1. It counts as biochemical. The method, then: Compounds were tested in a biochemical inhibition assay using human dipeptidylpeptidase 8 (hDPP8) enzyme at 1.5 nM FAC (BPS Bioscience, #80080) and the substrate Ala-Pro-amino-methylcoumarin (BPS Bioscience #80305) at 5 μM FAC. The enzymatic reactions were conducted in duplicate at rt for 30 min in 50 μL DPP assay buffer (BPS Bioscience, #80300). Compound solutions (in DMSO) at 10 CR, 3 fold dilution series were prepared in assay buffer ten-fold higher than the final concentration, and 5 μL of the dilution was added to a 50 μL reaction so that the highest compound concentration was 100 μM FAC and the concentration of DMSO was 1% in all wells. The plates were read on a Tecan Infinite M1000 microplate reader with excitation 340 nm and emission 460 nm. Data were analyzed in Graph Pad Prism. […] Raw data signals were normalized using 1% DMSO as 0% control and no enzyme as 100% inhibitor control.

Another data set concerns Rat Hepatocytes (rHep). The data set is described as follows: Metabolic stability in rat hepatocytes (rHep). Particulars: n = 1 or geometric mean (n = 2-3). It counts as in vitro ADME. The procedure: Metabolic stability in rat hepatocytes was measured as described in J Comput Aided Mol Des 2015, 29, 795.
Data set [3] in a line: Metabolic stability in human liver microsomes (HLM). Format: in vitro ADME. Particulars: n = 1 or average (n = 2-3). The method, then:
Metabolic stability in HLM was measured as described in J Comput Aided Mol Des 2015, 29, 795.

A short description of the next data set: Kinetic solubility. The following applies: kinetic from dmso stock, n = 1 or average (n = 2-4). It counts as physicochemical. The method, then: Kinetic solubility was measured as described in Comput Aided Mol Des 2015, 29, 795.

T2 sequence (Q6V1X1 whole entry): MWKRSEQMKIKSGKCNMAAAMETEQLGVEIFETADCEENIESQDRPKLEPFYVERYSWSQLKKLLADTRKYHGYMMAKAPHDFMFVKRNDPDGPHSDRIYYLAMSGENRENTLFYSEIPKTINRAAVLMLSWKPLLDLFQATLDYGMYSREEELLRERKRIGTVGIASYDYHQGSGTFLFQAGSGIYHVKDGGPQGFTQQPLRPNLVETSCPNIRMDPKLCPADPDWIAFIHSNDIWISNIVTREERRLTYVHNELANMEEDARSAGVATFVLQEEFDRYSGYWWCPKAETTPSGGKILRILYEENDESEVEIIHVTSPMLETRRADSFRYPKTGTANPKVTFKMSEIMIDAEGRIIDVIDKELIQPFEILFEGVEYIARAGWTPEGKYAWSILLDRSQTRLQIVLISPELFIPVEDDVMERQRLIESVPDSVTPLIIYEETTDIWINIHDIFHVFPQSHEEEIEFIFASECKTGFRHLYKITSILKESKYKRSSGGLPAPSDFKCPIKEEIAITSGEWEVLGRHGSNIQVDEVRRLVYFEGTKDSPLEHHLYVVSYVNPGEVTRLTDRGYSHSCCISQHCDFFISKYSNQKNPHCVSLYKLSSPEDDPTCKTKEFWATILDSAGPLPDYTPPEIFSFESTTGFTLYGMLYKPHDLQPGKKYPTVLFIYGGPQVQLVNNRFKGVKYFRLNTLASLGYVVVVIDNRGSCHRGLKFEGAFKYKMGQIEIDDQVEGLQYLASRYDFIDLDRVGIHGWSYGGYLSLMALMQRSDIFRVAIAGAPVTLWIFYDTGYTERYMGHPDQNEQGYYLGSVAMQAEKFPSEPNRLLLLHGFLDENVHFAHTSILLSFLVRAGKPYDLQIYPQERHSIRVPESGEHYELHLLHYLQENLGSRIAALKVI

As a reminder, the IC50 is the concentration that inhibits the measured activity by half. A lower IC50 goes with higher potency. Take `CC(C)(F)COc1ccc2nccc(C(=O)NCC(=O)N3CSC[C@H]3C#N)c2c1` [Example 3, (R)—N-(2-(4-Cyanothiazolidin-3-yl)-2-oxoethyl)-6-(2-fluoro-2-methylpropoxy)quinoline-4-carboxamide]: the figures for the IC50 in data set [1] and in data set [2] were > 100 µM and 6.4 µM, respectively.
The term microsomal CLint denotes a measure of how fast metabolising enzymes remove a compound, apart from limits set by blood flow. Low readings indicate slow turnover, high ones rapid turnover. The solubility is the dissolved amount per volume that the medium holds. Read a low solubility as little dissolved substance. `COC(C)(C)c1ccc2nccc(C(=O)NCC(=O)N3CSC[C@H]3C#N)c2c1` [Example 18, (R)—N-(2-(4-Cyanothiazolidin-3-yl)-2-oxoethyl)-6-(2-methoxypropan-2-yl)quinoline-4-carboxamide]: the “rHeps CLint” value in the data set with Rat Hepatocytes (rHep) amounted to 26 μL/min/1E6. In data set [3], this compound came in with a microsomal CLint of 69 µL/min/mg. The solubility in “Kinetic solubility” was > 1000 µM.
